Experiment [1] has as its target T1, horseradish peroxidase (HRP) tagged delF508-CFTR (Homo sapiens, UniProt P13569, DEL508-508).
T1 construct: expressed in transfected cells
Briefly: Measurement of delF508-CFTR-HRP surface expression in CFBE41o- cells.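 As to DelF508-CFTR-HRP Amax %: percent efficacy relative to reference corrector lumacaftor.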 The experiment is classed as cell-based. As to conditions: delF508-CFTR-HRP surface expression, CFBE41o- cells; for Emax: read-out: DelF508-CFTR-HRP Amax %; for EC50: read-out: DelF508-CFTR-HRP EC50. In outline: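 Surface-trafficked delF508-CFTR detected via extracellular HRP tag, read as luminescence from a membrane-impermeant substrate in CFBE41o- cells. Cells pre-induced 48h with 500 ng/mL doxycycline, then exposed 24h at 37° C to a 10-point, 3-fold dilution series from 10 μM (DMSO ≤0.5%). Triplicate dose-responses fitted logistically for EC50 after per-plate normalization; fold change versus reference compound.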

A further experiment addresses T2, delF508-CFTR (Homo sapiens, UniProt P13569, DEL508-508).
T2 construct: functional activity of the CFTR channel (Chloride ion transport) in patient derived primary human bronchial epithelial cells; host or cells: patient-derived primary human bronchial epithelial cells (delF508-CFTR)
Kind of experiment: Measurement of delF508-CFTR functional activity in primary human bronchial epithelial cells (HBECs) using Multi-Transepithelial Clamp Circuit (MTECC-24) assay. It counts as cell-based. As to conditions: primary CF HBECs; for MTECC24 CFHBEC- Amax %: test compound added 24h before assay plus potentiator, relative to reference combination (2 μM corrector + 0.5 μM potentiator); for EC50: test compound added 24h before assay, in the presence of potentiator, mean of at least two replicates, read-out: MTECC24 CFHBEC- EC50. The source says:
[formula] Measurement of delF508-CFTR Functional Activity in Primary Human Bronchial Epithelial Cells (HBECs) Using Multi-Transepithelial Clamp Circuit (MTECC-24) Assay
This assay measures the functional activity of the CFTR channel (Chloride ion transport) in patient derived primary human bronchial epithelial cells with forskolin activation and in the presence of the CFTR corrector/potentiator combo.
Primary human delF508-CFTR bronchial epithelial cells were purchased from Asterand and cultured according to previously established methods (Fulcher et al. (2005) Methods Mol Med 107: 183-206). Briefly, vendor supplied cells were rapidly defrosted and added to a T175 flask in 50 mL growth media (Lonza BEBM media with Lonza BEGM singlequots). Media was replaced after 24h and then cells were fed every other day until cells were 80-90% confluent, at which point cells were cryopreserved. These P1 vials were thawed at 37° C. as needed and added to T175 flasks in 50 mL growth media at 5×10^5 cells/flask. Media was replaced after 24h, and then cells were fed every other day until 80-90% confluent. Cells were lifted with 5 mL accutase at 37° C. for 5 minutes, centrifuged at 1000 rpms for 5 min (300 g), and resuspended in differentiation media (50% BEBM in DMEM, BEGM singlequots, all trans retinoic acid (5×10^−8M)). Cells were then counted and cell suspension was added to collagen coated inserts at 3×10^4 cells/insert in 0.15 mL with 0.5 mL differentiation media on the basolateral side.
Apical and basolateral media were replaced on alternate days, and following day 7 (or when confluent plus 2 days), air liquid interface was established for approximately two weeks by removal of apical media. One day prior to use on the MTECC24 system (EP-Devices, EP Design, Belgium), 0.15 mL of warmed (37° C.) PBS was added to the apical surface of the cultures and returned to humidifier (37° C., 5% CO2 incubator) for 30 min before aspirating the apical surface to remove any mucus.
Compound treatments were then prepared. Compound dilutions, typically a 10 point concentration response with 1 in 3 dilution steps, were made in 100% DMSO before dilution 1 in 1000 into differentiation medium with a final DMSO concentration of 0.1% or 0.2% for the study. Compound containing medium was then transferred into the wells of a 24 well plate at 0.5 mL per well and warmed for 30 min in a 37° C. incubator prior to transferring washed inserts into the compound containing plates. Cells were incubated in compound containing medium (basolateral only) for 24h prior to measurement in the MTECC24 system.
Following 24 hr treatment, compound dilutions were prepared again, diluted 1 in 1000 into 37° C. assay medium (F-12 Coon's modified, 20 mM HEPES pH7.4 with TRIS Base, No FCS or bicarbonate). Cells which were treated for 24h with test compound were then transferred into plates containing 0.75 mL compound treatment in assay medium (basolateral) and 0.25 mL of the compound containing assay medium was added to the apical surface. The plates were then transferred to the heated plate compartments of the MTECC24 system for 45 min prior to measurements (this can also be done in a non-CO2 37° C. humidified incubator). Basolateral temperature should not exceed 36.5° C. and apical temperature should be approximately 35.5° C.
Modulators were added sequentially as follows while the MTECC24 instrument recorded the equivalent short circuit current (Ieq):
Prior to dilution into F-12 medium the stocks are as follows:
Amiloride stock is 10 mM in H2O
Forskolin Stock is 10 mM in 100% DMSO
(S)-3-amino-6-methoxy-N-(3,3,3-trifluoro-2-hydroxy-2-methylpropyl)-5-(trifluoromethyl)picolinamide is 0.5 mM stock in 100% DMSO
INH-172 (4-[[4-Oxo-2-thioxo-3-[3-trifluoromethyl)phenyl]-5-thiazolidinylidene]methyl]benzoic acid) stock is 30 mM in 100% DMSO
The data was normalized using the median signal from wells treated with 0.1% DMSO as a baseline. […]

Where a name gives a salt, the structure may show the parent alone.

T2 sequence (P13569 with tags, fused parts or gaps DEL508-508): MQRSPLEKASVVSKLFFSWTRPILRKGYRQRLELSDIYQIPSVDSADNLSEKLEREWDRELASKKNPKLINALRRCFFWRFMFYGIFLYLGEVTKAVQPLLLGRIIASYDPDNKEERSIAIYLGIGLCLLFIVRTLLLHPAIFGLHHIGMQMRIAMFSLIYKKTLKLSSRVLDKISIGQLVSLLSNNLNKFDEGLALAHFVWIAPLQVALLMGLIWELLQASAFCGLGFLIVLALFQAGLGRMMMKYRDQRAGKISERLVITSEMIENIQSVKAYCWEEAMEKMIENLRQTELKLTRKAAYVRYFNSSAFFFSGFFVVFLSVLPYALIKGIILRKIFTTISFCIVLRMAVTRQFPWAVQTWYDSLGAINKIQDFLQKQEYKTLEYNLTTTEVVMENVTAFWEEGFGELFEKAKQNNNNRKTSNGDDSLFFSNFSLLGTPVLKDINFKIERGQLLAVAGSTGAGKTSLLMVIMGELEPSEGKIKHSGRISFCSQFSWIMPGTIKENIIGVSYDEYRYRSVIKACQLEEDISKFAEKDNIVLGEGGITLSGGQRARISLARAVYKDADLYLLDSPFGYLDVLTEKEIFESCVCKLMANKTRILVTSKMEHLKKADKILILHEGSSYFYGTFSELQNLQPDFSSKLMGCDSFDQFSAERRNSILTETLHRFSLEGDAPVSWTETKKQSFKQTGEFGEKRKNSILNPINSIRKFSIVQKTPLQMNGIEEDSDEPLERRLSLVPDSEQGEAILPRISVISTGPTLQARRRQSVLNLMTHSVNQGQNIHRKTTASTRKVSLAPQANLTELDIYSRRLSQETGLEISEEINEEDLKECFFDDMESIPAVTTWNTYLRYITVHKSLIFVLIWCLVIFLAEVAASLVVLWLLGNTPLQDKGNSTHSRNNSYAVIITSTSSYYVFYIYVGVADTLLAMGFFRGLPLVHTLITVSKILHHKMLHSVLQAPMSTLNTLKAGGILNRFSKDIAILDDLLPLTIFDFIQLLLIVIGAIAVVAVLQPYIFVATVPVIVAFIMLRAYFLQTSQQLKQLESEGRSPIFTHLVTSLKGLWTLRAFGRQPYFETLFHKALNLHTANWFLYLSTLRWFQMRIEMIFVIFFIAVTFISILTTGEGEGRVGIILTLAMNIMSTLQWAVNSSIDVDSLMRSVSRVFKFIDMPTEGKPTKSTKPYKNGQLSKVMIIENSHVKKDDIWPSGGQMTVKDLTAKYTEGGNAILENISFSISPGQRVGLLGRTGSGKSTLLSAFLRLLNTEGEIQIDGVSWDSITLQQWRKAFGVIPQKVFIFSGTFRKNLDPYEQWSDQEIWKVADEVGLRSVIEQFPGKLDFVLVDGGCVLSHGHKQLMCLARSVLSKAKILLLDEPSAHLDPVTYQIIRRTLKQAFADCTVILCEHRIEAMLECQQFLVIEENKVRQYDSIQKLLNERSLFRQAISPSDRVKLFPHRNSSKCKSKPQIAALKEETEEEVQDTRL
T1 sequence (P13569 with tags, fused parts or gaps DEL508-508): as above

What is called EC50 is the midpoint of the concentration-response curve. With `Cc1ccc(C(F)(F)F)cc1-c1nc(NS(=O)(=O)c2cccc(N3CC(C)(O)C3)n2)ccc1Cl` [Example 212, N-(5-chloro-6-(2-methyl-5-(trifluoromethyl)phenyl)pyridin-2-yl)-6-(3-hydroxy-3-methylazetidin-1-yl)pyridine-2-sulfonamide], in experiment [1], the Emax turned out to be 378% and the EC50 turned out to be 1820 nM. Besides, on delF508-CFTR, the “MTECC24 CFHBEC- Amax %” value was found to be 68.0% and the EC50 is 82 nM.

On to `Cc1ccc(F)cc1-c1nc(NS(=O)(=O)c2cccc(N3CCCC(C)(C(=O)O)C3)n2)ccc1C(F)(F)F` (stereo not drawn) [Example 361, 1-(6-{[6-(5-fluoro-2-methylphenyl)-5-(trifluoromethyl)pyridin-2-yl]sulfamoyl}pyridin-2-yl)-3-methylpiperidine-3-carboxylic Acid], for which the EC50 in experiment [1] is 2080 nM. For the same molecule, at delF508-CFTR, the “MTECC24 CFHBEC- Amax %” value was determined as 51.9% and the EC50 amounted to 11.3 nM.

Regarding `Cc1ccc(F)cc1-c1nc(NS(=O)(=O)c2cccc(N3CCN(C)CC3)n2)ccc1C(F)(F)F` [Example 179, N-(6-(5-fluoro-2-methylphenyl)-5-(trifluoromethyl)pyridin-2-yl)-6-(4-methylpiperazin-1-yl)pyridine-2-sulfonamide], the EC50 in experiment [1] was 2080 nM. Besides, at delF508-CFTR, the “MTECC24 CFHBEC- Amax %” value is 91.9% and the EC50 stood at 31.6 nM.

Regarding `Cc1ccc(C#N)cc1-c1nc(NS(=O)(=O)c2cccc(N3CC(C)(O)C3)n2)ccc1Cl` [Example 305, N-(5-chloro-6-(5-cyano-2-methylphenyl)pyridin-2-yl)-6-(3-hydroxy-3-methylazetidin-1-yl)pyridine-2-sulfonamide], in experiment [1], the Emax amounted to 312% and the EC50 stood at 2630 nM. At delF508-CFTR, the “MTECC24 CFHBEC- Amax %” value is on record as 81.3% and the EC50 is 44.3 nM.

Consider `Cc1ccccc1-c1nc(NS(=O)(=O)c2cccc(OC3CC(C(=O)O)C3)n2)ccc1C(F)(F)F` (mixture of isomers) [Example 331, 3-((6-(N-(6-(o-tolyl)-5-(trifluoromethyl)pyridin-2-yl)sulfamoyl)pyridin-2-yl)oxy)cyclobutanecarboxylic Acid], for which, in experiment [1], the Emax was found to be 218% and the EC50 is 1520 nM. Further, at delF508-CFTR, the “MTECC24 CFHBEC- Amax %” value is given as 67.4% and the EC50 turned out to be 64.9 nM.

For `Cc1ccccc1-c1nc(NS(=O)(=O)c2cccc(N3CCC(N)CC3)n2)ccc1C(F)(F)F` [Example 108, 6-(4-aminopiperidin-1-yl)-N-(6-(o-tolyl)-5-(trifluoromethyl)pyridin-2-yl)pyridine-2-sulfonamide Hydrochloride], in experiment [1], the Emax was found to be 336% and the EC50 turned out to be 4070 nM. Also, at delF508-CFTR, the “MTECC24 CFHBEC- Amax %” value is reported as 61.4% and the EC50 worked out at 54.9 nM.

On to `Cc1ccccc1-c1nc(NS(=O)(=O)c2cccc(N3CCC4(CC[C@@H]4N)CC3)n2)ccc1C(F)(F)F` [Example 306, (S)-6-(1-amino-7-azaspiro[3.5]nonan-7-yl)-N-(6-(o-tolyl)-5-(trifluoromethyl)pyridin-2-yl)pyridine-2-sulfonamide], for which, in experiment [1], the Emax is 418% and the EC50 was 3050 nM. On delF508-CFTR, the “MTECC24 CFHBEC- Amax %” value is recorded as 88.1% and the EC50 was found to be 31.5 nM.

In the case of `Cc1ccc(F)cc1-c1nc(NS(=O)(=O)c2ccnc(N3CC(C)(O)C3)c2)ccc1C(F)(F)F` [Example 320, N-(6-(5-fluoro-2-methylphenyl)-5-(trifluoromethyl)pyridin-2-yl)-2-(3-hydroxy-3-methylazetidin-1-yl)pyridine-4-sulfonamide], in experiment [1], the Emax stood at 545% and the EC50 was determined as 2220 nM. On delF508-CFTR, the “MTECC24 CFHBEC- Amax %” value came to 74.2% and the EC50 was 126 nM.

For the molecule `Cc1cccc(C)c1-c1nc(NS(=O)(=O)c2cccc(N[C@H]3C[C@@H](O)C3)n2)ccc1Cl` [Example 286, N-[5-chloro-6-(2,6-dimethylphenyl)pyridin-2-yl]-6-{[(1s,3s)-3-hydroxycyclobutyl]amino}pyridine-2-sulfonamide], in experiment [1], the Emax amounted to 847% and the EC50 amounted to 1490 nM. On delF508-CFTR, the “MTECC24 CFHBEC- Amax %” value was 153.1% and the EC50 is 23.9 nM.

Regarding `COc1ccc(F)cc1-c1nc(NS(=O)(=O)c2cccc(N3CC(O)C3)n2)ccc1C(F)(F)F` [Example 209, N-(6-(5-fluoro-2-methoxyphenyl)-5-(trifluoromethyl)pyridin-2-yl)-6-(3-hydroxyazetidin-1-yl)pyridine-2-sulfonamide], in experiment [1], the Emax is 231% and the EC50 was 2700 nM. Further, at delF508-CFTR, the “MTECC24 CFHBEC- Amax %” value stood at 95.6% and the EC50 was 139 nM.

As for `Cc1ccc(F)cc1-c1nc(NS(=O)(=O)c2cccc(N3CCC(O)C3C(=O)O)n2)ccc1C(F)(F)F` (stereo not drawn) [Example 315, 1-(6-(N-(6-(5-fluoro-2-methylphenyl)-5-(trifluoromethyl)pyridin-2-yl)sulfamoyl)pyridin-2-yl)-3-hydroxypyrrolidine-2-carboxylic Acid], in experiment [1], the Emax was 269% and the EC50 was 3290 nM. Besides, at delF508-CFTR, the “MTECC24 CFHBEC- Amax %” value is 60.9% and the EC50 is 52 nM.

As to `COc1ccc(Cl)c(-c2nc(NS(=O)(=O)c3cccc(N4CCC(C)(C(=O)O)CC4)n3)ccc2C(F)(F)F)c1` [Example 241, 1-(6-(N-(6-(2-chloro-5-methoxyphenyl)-5-(trifluoromethyl)pyridin-2-yl)sulfamoyl)pyridin-2-yl)-4-methylpiperidine-4-carboxylic Acid], in experiment [1], the Emax came to 510% and the EC50 was found to be 2890 nM. Moreover, on delF508-CFTR, the “MTECC24 CFHBEC- Amax %” value was 48.9% and the EC50 came to 12.4 nM.

In the case of `COc1ccc(F)cc1-c1nc(NS(=O)(=O)c2cccc(N)n2)ccc1Cl` [Example 62, 6-amino-N-(5-chloro-6-(5-fluoro-2-methoxyphenyl)pyridin-2-yl)pyridine-2-sulfonamide], in experiment [1], the Emax amounted to 240% and the EC50 worked out at 1730 nM. Also, at delF508-CFTR, the “MTECC24 CFHBEC- Amax %” value was 46.1% and the EC50 worked out at 51.2 nM.

With `Cc1cccc(C)c1-c1nc(NS(=O)(=O)c2cccc(N3CCN[C@@H](CO)C3)n2)ccc1C(F)(F)F` [Example 172, (R)—N-(6-(2,6-dimethylphenyl)-5-(trifluoromethyl)pyridin-2-yl)-6-(3-(hydroxymethyl)piperazin-1-yl)pyridine-2-sulfonamide Hydrochloride], in experiment [1], the Emax came out at 684% and the half-maximal effective concentration (EC50) turned out to be 2510 nM. In addition, at delF508-CFTR, the “MTECC24 CFHBEC- Amax %” value is on record as 77.0% and the EC50 was 314 nM.

Values taken from patent US11066369B2, “N-(pyridin-2-yl)pyridine-sulfonamide derivatives and their use in the treatment of disease” (Novartis AG, priority 2016, dated 2021).
